# Measurements from ChEMBL document CHEMBL5046242, “Investigation of Janus Kinase (JAK) Inhibitors for Lung Delivery and the Importance of Aldehyde Oxidase Metabolism” (J Med Chem, 2022).
# Legend:
# [1] = biological target: Tyrosine-protein kinase JAK1 (Homo sapiens, UniProt P23458); assay type: cell-based
# physchem [2] = conditions: buffer, pH 7.4
# [3] = biological target: Non-receptor tyrosine-protein kinase TYK2 (Homo sapiens, UniProt P29597); assay type: cell-based
# in vitro = conditions: PAMPA, pH 7.4
# Description: Permeability of the compound at pH 7.4 incubated for 3 hrs by HPLC based artificial membrane permeability assay
# Aurora kinase B = Aurora kinase B (Homo sapiens, UniProt Q96GD4)
# physchem [4] = conditions: buffer, pH 6.5
# Description: Solubility of the compound in stimulated lung fluid at pH 6.5 measured after 4 hrs by HPLC-UV analysis
# Sequence of Tyrosine-protein kinase JAK1 (P23458 whole entry): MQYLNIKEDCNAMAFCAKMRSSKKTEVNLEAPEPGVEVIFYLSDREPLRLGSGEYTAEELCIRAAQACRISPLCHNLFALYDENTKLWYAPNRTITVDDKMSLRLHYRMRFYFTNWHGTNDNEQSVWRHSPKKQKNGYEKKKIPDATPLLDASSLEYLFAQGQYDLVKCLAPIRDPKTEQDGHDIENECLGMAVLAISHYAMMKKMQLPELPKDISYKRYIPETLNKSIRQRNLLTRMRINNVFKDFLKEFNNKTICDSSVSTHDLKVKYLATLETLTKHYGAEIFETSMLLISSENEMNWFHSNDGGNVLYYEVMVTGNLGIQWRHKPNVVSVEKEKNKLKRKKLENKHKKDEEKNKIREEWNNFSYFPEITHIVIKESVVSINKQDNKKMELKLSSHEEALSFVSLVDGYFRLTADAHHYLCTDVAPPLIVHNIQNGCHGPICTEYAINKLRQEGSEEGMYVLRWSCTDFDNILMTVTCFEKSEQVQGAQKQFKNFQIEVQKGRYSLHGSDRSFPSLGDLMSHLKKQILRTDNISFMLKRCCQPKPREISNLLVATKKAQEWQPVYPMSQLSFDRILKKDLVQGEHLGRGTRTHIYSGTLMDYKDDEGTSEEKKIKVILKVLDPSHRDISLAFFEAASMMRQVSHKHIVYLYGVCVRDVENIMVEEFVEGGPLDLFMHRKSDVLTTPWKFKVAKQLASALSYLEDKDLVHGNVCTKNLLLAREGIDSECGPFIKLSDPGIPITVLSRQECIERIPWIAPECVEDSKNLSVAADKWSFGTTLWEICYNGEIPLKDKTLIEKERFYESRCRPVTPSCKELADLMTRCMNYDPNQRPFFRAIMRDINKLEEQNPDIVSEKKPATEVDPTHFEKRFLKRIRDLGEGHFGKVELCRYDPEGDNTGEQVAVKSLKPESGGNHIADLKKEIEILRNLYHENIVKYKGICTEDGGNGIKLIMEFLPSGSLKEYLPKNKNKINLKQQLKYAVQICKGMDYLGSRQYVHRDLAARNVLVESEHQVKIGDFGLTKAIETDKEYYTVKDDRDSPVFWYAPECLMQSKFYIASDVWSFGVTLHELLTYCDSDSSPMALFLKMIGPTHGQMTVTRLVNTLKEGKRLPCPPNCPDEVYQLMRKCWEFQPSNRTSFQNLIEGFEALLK
# Sequence of Non-receptor tyrosine-protein kinase TYK2 (P29597 whole entry): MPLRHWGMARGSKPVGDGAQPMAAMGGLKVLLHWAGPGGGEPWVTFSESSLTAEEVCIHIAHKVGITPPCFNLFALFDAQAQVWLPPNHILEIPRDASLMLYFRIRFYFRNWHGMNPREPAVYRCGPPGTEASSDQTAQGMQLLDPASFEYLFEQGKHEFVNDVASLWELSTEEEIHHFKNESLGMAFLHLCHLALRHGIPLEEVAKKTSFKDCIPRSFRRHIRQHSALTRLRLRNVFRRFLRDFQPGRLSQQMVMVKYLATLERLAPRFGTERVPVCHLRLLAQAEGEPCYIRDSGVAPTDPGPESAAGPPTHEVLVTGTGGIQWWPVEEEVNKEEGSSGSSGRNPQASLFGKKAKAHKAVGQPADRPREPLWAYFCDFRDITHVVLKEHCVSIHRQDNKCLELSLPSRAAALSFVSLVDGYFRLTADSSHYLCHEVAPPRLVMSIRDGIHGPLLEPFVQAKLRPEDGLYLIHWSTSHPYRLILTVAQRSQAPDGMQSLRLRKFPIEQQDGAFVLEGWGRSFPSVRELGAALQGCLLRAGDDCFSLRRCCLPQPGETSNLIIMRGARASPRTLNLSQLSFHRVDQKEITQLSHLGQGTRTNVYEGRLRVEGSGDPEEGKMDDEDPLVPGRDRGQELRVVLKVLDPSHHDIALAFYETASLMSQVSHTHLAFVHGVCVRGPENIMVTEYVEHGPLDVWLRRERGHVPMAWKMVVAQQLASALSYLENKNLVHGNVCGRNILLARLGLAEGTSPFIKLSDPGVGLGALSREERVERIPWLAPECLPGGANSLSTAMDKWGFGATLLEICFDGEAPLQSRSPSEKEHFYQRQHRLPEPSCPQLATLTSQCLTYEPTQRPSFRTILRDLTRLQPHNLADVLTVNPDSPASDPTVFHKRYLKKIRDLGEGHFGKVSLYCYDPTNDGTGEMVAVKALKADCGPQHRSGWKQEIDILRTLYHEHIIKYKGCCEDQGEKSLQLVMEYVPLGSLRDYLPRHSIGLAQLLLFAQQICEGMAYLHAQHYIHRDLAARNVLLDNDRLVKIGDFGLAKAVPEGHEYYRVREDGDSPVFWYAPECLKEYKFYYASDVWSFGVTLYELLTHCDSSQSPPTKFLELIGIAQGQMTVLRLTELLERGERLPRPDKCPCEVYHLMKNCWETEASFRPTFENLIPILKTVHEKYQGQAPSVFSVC
# Sequence of Aurora kinase B (Q96GD4 whole entry): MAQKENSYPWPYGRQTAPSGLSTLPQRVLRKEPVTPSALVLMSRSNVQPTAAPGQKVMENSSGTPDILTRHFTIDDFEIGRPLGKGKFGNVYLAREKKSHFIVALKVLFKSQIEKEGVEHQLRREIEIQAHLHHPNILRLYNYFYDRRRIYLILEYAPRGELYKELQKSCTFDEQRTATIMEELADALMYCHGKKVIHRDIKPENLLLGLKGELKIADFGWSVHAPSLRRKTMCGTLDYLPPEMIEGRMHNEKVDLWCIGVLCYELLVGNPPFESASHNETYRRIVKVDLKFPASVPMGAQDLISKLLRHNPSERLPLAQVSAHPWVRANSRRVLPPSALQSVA
IC50 [1],solubility kinetic at 1 h (physchem [2]),IC50 [3],Papp at 3 h (in vitro),IC50 (Aurora kinase B),solubility at 4 h (physchem [4]),Structure (SMILES)
0.0794 µM,523 µM,,,,,Cn1cc(Nc2ncc3cccc(OC4CCNCC4)c3n2)cn1
0.631 µM,539 µM,0.631 µM,,,,COc1cccc2cnc(Nc3cnn(C)c3)nc12
0.251 µM,557 µM,0.316 µM,,,,CC(=O)N1CCC(Oc2cccc3cnc(Nc4cnn(C)c4)nc23)CC1
,,,1.2 ×10⁻⁶ cm/s,12.6 µM,,CCc1cc(O)c(F)cc1-c1cc(NCCNC)c2nc(N)ncc2c1
,,,12 ×10⁻⁶ cm/s,,44 µg/mL,CCc1cc(O)c(F)cc1-c1cc(NCCO)c2nc(N)ncc2c1
0.126 µM,404 µM,,,,,CC(=O)N1CCC(Nc2cccc3cnc(Nc4cnn(C)c4)nc23)CC1
0.000501 µM,11 µM,,,,,COc1cc(-c2ccc(O)cc2)cc2cnc(Nc3cnn(C)c3)nc12
